From patent US10238688B2, “Combination therapies for bladder cancer” (GENEDIA BIOTECH CO. LTD., priority 2015, dated 2019)

Legend:
[1] = system: MAPK/ERK pathway; experiment: Cignal Finder dual-luciferase pathway reporter, MAPK/ERK; assay type: cell-based, human; details: for Relative activity, MAPK/ERK reporter: luc/Renluc relative to negative control reporter, single drug at 4 folds vs EH/Ci/Mi combination
Description: (§1) The pathway analysis was performed with Qiagen's Cignal Finder Pathway Reporter Array systems according to the manufacturer's instructions. The pathway-focused dual-luciferase reporter construct was a mixture of an inducible transcription factor responsive firefly luciferase reporter and constitutively expressing renilla construct. Transcriptional response element (TRE) sequence response elements to each specific transcriptional factor triggered by the different signaling pathways are positioned before the TATA box of firefly luciferase reporter gene. The extent of activity of the reporter reflects the level of activity of the particular signaling pathway. CMV controlled renilla expression vector is co-transfected into the cell as an internal control. Non-inducible reporter construct that lacks the transcriptional factor binding sequence and could not be induced by any transcription factors is used as a negative control. Cells transfected with CMV directed firefly luciferase reporter gene serve as a positive control. Briefly, cells seeded in 6-well plates were transfected with Cignal finder pathway arrays according to the manufacturer's instructions (Qiagen). Then cells were seeded onto 96-well plates. Ci (6000 ng/mL), Mi (800 ng/mL), or EH (1000 ng/mL) and Ci/Mi/EH combination (Ci, 1500 ng/mL, Mi, 800 ng/mL and EH, 1000 ng/m L) were then added to the cells 24 h post-transfection. After 6 h of incubation with the different drugs at 37° C., cells were lysed and a dual luciferase assay (for firefly and renilla luciferase) was performed using a PromegaGloMax 20/20 illuminometer. The firefly luciferase activities were normalized over the renilla luciferase activities after background activity determined by luciferase activities of negative controls was subtracted. A triple test of cell survival under these drug doses was also performed by MTT assay following 18 h incubation at 37° C. […]

[2] = system: EJ; experiment: MTT cell survival / IC50, EJ cells; assay type: cell-based, human; details: for Cell survival (%): Table S3, ng/ml: Pi 40, Pa 160, EH 250, Ci 1500, Mi 200, 1=Ci/Mi, 2=EH/Ci/Mi, 3=Pa/Ci/Mi, 4=Pi/Ci/Mi; for Single drug 4X Cell Survival (%): ng/ml: EH 1000, Ci 6000, Mi 800, Pi 160, Pa 640, Ge 20, EH/Ci/Mi regimen
Description: The clinical grade of the chemotherapeutics (NCI Dictionary of Cancer Terms) was provided by the First Affiliated Hospital of Harbin Medical University: Pirarubicin (Pi, Wanle, Shenzhen), Paclitaxel (Pa, Taiji, Sichuan), Adriamycin (Ad, Pfizer, Jiangsu), Epirubicin Hydrochloride (EH, Haizheng, Zhejiang), Hydroxycamptothecin (Hy, Lishizhen, Hubei), Cisplatin (Ci, Haosen, Jiangsu), Gemcitabine (Ge, Haosen, Jiangsu) and Mitomycin (Mi, Haizheng, Zhejiang). The drug induced cell death was determined by a thiazolyl […] (MTT, 490 nm reading) based cell proliferation assay in the cultured cells following treatment by various concentrations of drugs for 72 hours. The relative chemoresistance to each drug of all cell lines was calculated with the lowest IC50 as a reference. The overall chemoresistance of each cell line was described as “chemoresistance index”, the numerator of the total relative IC50 to all the drugs over the number of drugs to rank the overall resistance state of each cell line to the six chemotherapeutics collectively.
The relative IC50 (fold) of each drug of all nine cell lines was normalized to the lowest IC50 in the most sensitive cell line (FIG. 2G), to describe the single drug resistance of cell lines. The overall chemoresistance of each cell line, a “chemoresistance index” (the numerator of the total relative IC50 over the number of drugs) (FIG. 2G) were calculated to rank the overall resistance state of each cell line to this six chemotherapeutics.
Twenty six-drug combinations at the indicated doses were initially generated through a random number generator (using MATLAB MathWorks©, Natick, Mass., U.S.) (The upper half of Table 1). The cell survival (% over the not drug control) of treated cells was determined and then used for a calculation of the average cumulative cell survival (%, ACS: the sum of cell survival (%) per combination divided by the number of cell lines tested). ACS<30% was used to separate the effective from the not-effective combinations.

[3] = system: nine cancer-associated signaling pathways; experiment: Pearson correlation of collective drug-triggered pathway activities (single drug versus EH/Ci/Mi regimen)
Description: To calculate the correlation coefficients between the two cell lines, the R language statistics function “cor{stats}” was used to generate the correlation matrix between multiple cell lines.
This example then determined the correlation coefficient between the overall activity of these nine pathways and the chemoresistance state of these five cell lines. […] The overall state of activity of these pathways in each cell line are summarized (FIG. 4E) and the correlation coefficient of each pair of cell lines is calculated (FIG. 4F).

[4] = system: Myc/Max pathway; experiment: Cignal Finder dual-luciferase pathway reporter, Myc/Max; assay type: cell-based, human; details: for Relative activity, Myc/Max reporter: luc/Renluc relative to negative control reporter, single drug at 4 folds vs EH/Ci/Mi combination
Description: as §1, with “Ci (6000 ng/mL), Mi (800 ng/mL), or EH (1000 ng/mL) and Ci/Mi/EH combination (Ci, 1500 ng/mL, Mi, 800 ng/mL and EH, 1000 ng/m L) were then added to the cells 24 h post-transfection.” left out

[5] = system: Wnt pathway; experiment: Cignal Finder dual-luciferase pathway reporter, Wnt; assay type: cell-based, human; set-up: key to Relative activity, Wnt reporter: firefly/renilla ratio, background (negative control) subtracted; details: for Relative activity, Wnt reporter: luc/Renluc relative to negative control reporter, single drug at 4 folds vs EH/Ci/Mi combination;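 on digitalized pathway activity, Wnt: code −1 means repressed below 0.5-fold of 5637 cells or no-drug control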
Description: as §1

N.N.[Cl][Pt][Cl] [Ci, (SP-4-2)-diamminedichloroplatinum(II)]
relative drug trigged pathway activity over the no-drug level, MAPK/ERK ([1]; 5637 cells): 1.74 fold | Relative activity, MAPK/ERK reporter ([1]; 5637 cells): 90.77 | digitalized pathway activity, MAPK/ERK ([1]; Biu87 cells): 0 (null (0) if neither of the above holds) | relative drug trigged pathway activity over the no-drug level, MAPK/ERK ([1]; Biu87 cells): 0.66 fold | Relative activity, MAPK/ERK reporter ([1]; Biu87 cells): 321.19 | digitalized pathway activity, MAPK/ERK ([1]; H-bc cells): 0 (null (0) if neither of the above holds) | relative drug trigged pathway activity over the no-drug level, MAPK/ERK ([1]; H-bc cells): 0.71 fold | Relative activity, MAPK/ERK reporter ([1]; H-bc cells): 340.57 | relative drug trigged pathway activity over the no-drug level, MAPK/ERK ([1]; SV-HUC-1 cells): 1.65 fold | Relative activity, MAPK/ERK reporter ([1]; SV-HUC-1 cells): 389.00 | digitalized pathway activity, MAPK/ERK ([1]; UM-UC-3 cells): 0 (null (0) if neither of the above holds) | Relative activity, MAPK/ERK reporter ([1]; UM-UC-3 cells): 72.05 | relative drug trigged pathway activity over the no-drug level, MAPK/ERK ([1]; Um-Uc-3 cells): 0.51 fold | Cell survival (%) [2]: 32.34% | Single drug 4X Cell Survival (%) [2]: 22.36% | Correlation coefficients versus EH/Ci/Mi ([3]; 5637 cells): 0.9177 | Correlation coefficients versus EH/Ci/Mi ([3]; Biu87 cells): 0.3273 | Correlation coefficients versus EH/Ci/Mi ([3]; H-bc cells): 0.6934 | Correlation coefficients versus EH/Ci/Mi ([3]; SV-HUC-1 cells): 1 | Correlation coefficients versus EH/Ci/Mi ([3]; UmUc3 cells): −0.7559 | digitalized pathway activity, Myc/Max ([4]; 5637 cells): 0 (null (0) if neither of the above holds) | relative drug trigged pathway activity over the no-drug level, Myc/Max ([4]; 5637 cells): 1.05 fold | Relative activity, Myc/Max reporter ([4]; 5637 cells): 11.64 | digitalized pathway activity, Myc/Max ([4]; Biu87 cells): 0 (null (0) if neither of the above holds) | relative drug trigged pathway activity over the no-drug level, Myc/Max ([4]; Biu87 cells): 0.56 fold | Relative activity, Myc/Max reporter ([4]; Biu87 cells): 4.60 | digitalized pathway activity, Myc/Max ([4]; H-bc cells): 0 (null (0) if neither of the above holds) | relative drug trigged pathway activity over the no-drug level, Myc/Max ([4]; H-bc cells): 1.03 fold | Relative activity, Myc/Max reporter ([4]; H-bc cells): 50.23 | digitalized pathway activity, Myc/Max ([4]; SV-HUC-1 cells): 0 (null (0) if neither of the above holds) | relative drug trigged pathway activity over the no-drug level, Myc/Max ([4]; SV-HUC-1 cells): 1 fold | Relative activity, Myc/Max reporter ([4]; SV-HUC-1 cells): 109.70 | Relative activity, Myc/Max reporter ([4]; UM-UC-3 cells): 24.42 | relative drug trigged pathway activity over the no-drug level, Myc/Max ([4]; Um-Uc-3 cells): 0.42 fold | digitalized pathway activity, Wnt ([5]; 5637 cells): 0 (null (0) if neither of the above holds) | relative drug trigged pathway activity over the no-drug level, Wnt ([5]; 5637 cells): 1.14 fold | Relative activity, Wnt reporter ([5]; 5637 cells): 1.00 | relative drug trigged pathway activity over the no-drug level, Wnt ([5]; Biu87 cells): 0.41 fold | Relative activity, Wnt reporter ([5]; Biu87 cells): 0.69 | digitalized pathway activity, Wnt ([5]; H-bc cells): 0 (null (0) if neither of the above holds) | relative drug trigged pathway activity over the no-drug level, Wnt ([5]; H-bc cells): 0.78 fold | Relative activity, Wnt reporter ([5]; H-bc cells): 3.14 | digitalized pathway activity, Wnt ([5]; SV-HUC-1 cells): 0 (null (0) if neither of the above holds) | relative drug trigged pathway activity over the no-drug level, Wnt ([5]; SV-HUC-1 cells): 1.25 fold | Relative activity, Wnt reporter ([5]; SV-HUC-1 cells): 1.55 | Relative activity, Wnt reporter ([5]; UM-UC-3 cells): 1.73 | relative drug trigged pathway activity over the no-drug level, Wnt ([5]; Um-Uc-3 cells): 0.48 fold

COc1cccc2c1C(=O)c1c(O)c3c(c(O)c1C2=O)C[C@@](O)(C(=O)CO)C[C@@H]3[C@@H]1C[C@H](N)[C@@H](O)[C@H](C)O1 [EH, (8R,10S)-10-((2S,4S,5R,6S)-4-amino-5-hydroxy-6-methyltetrahydro-2H-pyran-2-yl)-6,8,11-trihydroxy-8-(2-hydroxyacetyl)-1-methoxy-7,8,9,10-tetrahydrotetracene-5,12-dione]
relative drug trigged pathway activity over the no-drug level, MAPK/ERK ([1]; 5637 cells): 2.26 fold | Relative activity, MAPK/ERK reporter ([1]; 5637 cells): 117.70 | digitalized pathway activity, MAPK/ERK ([1]; Biu87 cells): 0 (null (0) if neither of the above holds) | relative drug trigged pathway activity over the no-drug level, MAPK/ERK ([1]; Biu87 cells): 1.24 fold | Relative activity, MAPK/ERK reporter ([1]; Biu87 cells): 608.33 | digitalized pathway activity, MAPK/ERK ([1]; H-bc cells): 0 (null (0) if neither of the above holds) | relative drug trigged pathway activity over the no-drug level, MAPK/ERK ([1]; H-bc cells): 0.75 fold | Relative activity, MAPK/ERK reporter ([1]; H-bc cells): 95.16 | digitalized pathway activity, MAPK/ERK ([1]; SV-HUC-1 cells): 0 (null (0) if neither of the above holds) | relative drug trigged pathway activity over the no-drug level, MAPK/ERK ([1]; SV-HUC-1 cells): 0.95 fold | Relative activity, MAPK/ERK reporter ([1]; SV-HUC-1 cells): 225.00 | Relative activity, MAPK/ERK reporter ([1]; UM-UC-3 cells): 183.22 | relative drug trigged pathway activity over the no-drug level, MAPK/ERK ([1]; Um-Uc-3 cells): 1.29 fold | Cell survival (%) [2]: 56.55% | Single drug 4X Cell Survival (%) [2]: 38.46% | Correlation coefficients versus EH/Ci/Mi ([3]; 5637 cells): 0.9177 | Correlation coefficients versus EH/Ci/Mi ([3]; Biu87 cells): 0.982 | Correlation coefficients versus EH/Ci/Mi ([3]; H-bc cells): 0.9707 | Correlation coefficients versus EH/Ci/Mi ([3]; SV-HUC-1 cells): 0.9449 | Correlation coefficients versus EH/Ci/Mi ([3]; UmUc3 cells): 0.3712 | relative drug trigged pathway activity over the no-drug level, Myc/Max ([4]; 5637 cells): 1.5 fold | Relative activity, Myc/Max reporter ([4]; 5637 cells): 16.61 | relative drug trigged pathway activity over the no-drug level, Myc/Max ([4]; Biu87 cells): 1.66 fold | Relative activity, Myc/Max reporter ([4]; Biu87 cells): 13.61 | digitalized pathway activity, Myc/Max ([4]; H-bc cells): 0 (null (0) if neither of the above holds) | relative drug trigged pathway activity over the no-drug level, Myc/Max ([4]; H-bc cells): 1.37 fold | Relative activity, Myc/Max reporter ([4]; H-bc cells): 17.62 | digitalized pathway activity, Myc/Max ([4]; SV-HUC-1 cells): 0 (null (0) if neither of the above holds) | relative drug trigged pathway activity over the no-drug level, Myc/Max ([4]; SV-HUC-1 cells): 1.13 fold | Relative activity, Myc/Max reporter ([4]; SV-HUC-1 cells): 125.00 | Relative activity, Myc/Max reporter ([4]; UM-UC-3 cells): 25.48 | relative drug trigged pathway activity over the no-drug level, Myc/Max ([4]; Um-Uc-3 cells): 0.44 fold | digitalized pathway activity, Wnt ([5]; 5637 cells): 0 (null (0) if neither of the above holds) | relative drug trigged pathway activity over the no-drug level, Wnt ([5]; 5637 cells): 1.19 fold | Relative activity, Wnt reporter ([5]; 5637 cells): 1.04 | digitalized pathway activity, Wnt ([5]; Biu87 cells): 0 (null (0) if neither of the above holds) | relative drug trigged pathway activity over the no-drug level, Wnt ([5]; Biu87 cells): 0.95 fold | Relative activity, Wnt reporter ([5]; Biu87 cells): 1.57 | digitalized pathway activity, Wnt ([5]; H-bc cells): 0 (null (0) if neither of the above holds) | relative drug trigged pathway activity over the no-drug level, Wnt ([5]; H-bc cells): 1.03 fold | Relative activity, Wnt reporter ([5]; H-bc cells): 1.10 | digitalized pathway activity, Wnt ([5]; SV-HUC-1 cells): 0 (null (0) if neither of the above holds) | relative drug trigged pathway activity over the no-drug level, Wnt ([5]; SV-HUC-1 cells): 1.05 fold | Relative activity, Wnt reporter ([5]; SV-HUC-1 cells): 1.30 | digitalized pathway activity, Wnt ([5]; UM-UC-3 cells): 0 (null (0) if neither of the above holds) | Relative activity, Wnt reporter ([5]; UM-UC-3 cells): 4.12 | relative drug trigged pathway activity over the no-drug level, Wnt ([5]; Um-Uc-3 cells): 1.15 fold
